Results as given in patent publication US20040191843A1, “Cell-killing molecules and methods of use thereof” (Palo Alto Institute of Molecular Medicine, priority 2003, published 2004).

Test system: U9-TR
Assay: DNA fragmentation in whole cells (release of 3H-labeled DNA fragments, 4 h)
Assay type: cell-based, human
Experimental: DNA fragmentation in whole cells or normal nuclei isolated from U937 or MCF-7 cells was assayed by release of (3H)thymidine-labeled DNA fragments as described in detail previously (Wright et al. (1994) J. Exp. Med. 180, 2113-2123). DNA fragmentation induced by rADF treatment of isolated nuclei for four h was analyzed by agarose electrophoresis as described in detail previously (Wright et al. (1994) supra). In four h assays using isolated nuclei, the buffer was supplemented with an ATP regenerating system (2 mM ATP, 10 mM phosphocreatine, and 50 μg/ml creatine kinase).
Another mechanism whereby cancer cells may resist apoptosis is through overexpression of heat shock (HS) proteins which have been found at high levels in most tumor cell biopsies (Jaattela, et al., 1999, Exp Cell Res 248:30-43). […] We have studied the mechanisms of apoptosis resistance using several variants derived from the U937 cell line. Variants generated by prolonged growth in the presence of TNF (U9-TR) or by nutritional depletion of intracellular NAD content (U9-NAD-) have been described in the literature previously (Wright, et al., 1992, Cancer Immunol Immunother 34:399-406; Wright, et al., 1996b, J. Exp. Med. 183: 463-477). Both of these variants were resistant to apoptosis induced by diverse agents, such as chemotherapeutic drugs, UV light, and TNF.

`COc1cc([C@@H]2c3cc4c(cc3[C@@H](O[C@@H]3O[C@@H]5CO[C@@H](C)O[C@H]5[C@H](O)[C@H]3O)[C@H]3COC(=O)[C@H]23)OCO4)cc(OC)c1O` [Etoposide, etoposide] was tested, and the “fold increase of IC50 values in resistant variants” value was > 41 fold.
